Source: patent US20230151025A1, “SUBSTITUTED THIAZOLOPYRIDINES, SALTS THEREOF AND THEIR USE AS HERBICIDALLY ACTIVE SUBSTANCES” (Bayer Aktiengesellschaft, priority 2020, published 2023)

What was measured:
Type in all cases: in vivo
[1] = test system: Stellaria media (STEME); assay: Herbicidal post-emergence action (B), 1280 g/ha
Method in brief: (§1)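 Foliar post-emergence treatment of one-leaf-stage weeds with WP or EC preparations in water plus 0.5% additive, sprayed at 600 L/ha. Visual efficacy was assessed after roughly 3 weeks relative to untreated controls, 100% being complete kill.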

[2] = test system: Kochia scoparia (KCHSC; Bassia scoparia); assay: Herbicidal post-emergence action (B), 1280 g/ha
Method in brief: as §1

[3] = test system: Lolium rigidum (LOLRI); assay: Herbicidal post-emergence action (B), 1280 g/ha; conditions: one-leaf stage, rated after about 3 weeks vs untreated controls, 100% activity = the plants have died, 0% = like control plants
Method in brief: as §1

[4] = test system: Alopecurus myosuroides (ALOMY); assay: Herbicidal post-emergence action (B), 1280 g/ha; conditions: rated visually after about 3 weeks vs untreated controls
Method in brief: as §1

[5] = test system: Veronica persica (VERPE); assay: Herbicidal post-emergence action (B), 1280 g/ha
Method in brief: as §1

[6] = test system: Amaranthus retroflexus (AMARE); assay: Herbicidal post-emergence action (B), 1280 g/ha; conditions: rated visually after about 3 weeks vs untreated controls
Method in brief: as §1

[7] = test system: Abutilon theophrasti (ABUTH); assay: Herbicidal post-emergence action (B), 1280 g/ha; conditions: rated visually after about 3 weeks vs untreated controls
Method in brief: as §1

[8] = test system: Digitaria sanguinalis (DIGSA); assay: Herbicidal post-emergence action (B), 1280 g/ha; conditions: rated visually after about 3 weeks vs untreated controls
Method in brief: as §1

[9] = test system: Poa annua (POAAN); assay: Herbicidal post-emergence action (B), 1280 g/ha; conditions: rated visually after about 3 weeks vs untreated controls
Method in brief: as §1

[10] = test system: Amaranthus retroflexus (AMARE); assay: Herbicidal post-emergence action (D), 320 g/ha; conditions: ca. 3 weeks
From the text: (§2) ABUTH: Abutilon theophrasti AGSTE: Agrostis tenuis ALOMY: Alopecurus myosuroides AMARE Amaranthus retroflexus DIGSA: Digitaria sanguinalis ECHCG: Echinochloa crus-galli KCHSC: Kochia scoparia LOLRI: Lolium rigidum MATIN: Matricaria inodora POAAN: Poa annua POLCO: Polygonum convolvulus SETVI: Setaria viridis STEME: Stellaria media VERPE: Veronica persica VIOTR: Viola tricolor
(§3) Seeds of mono- and dicotyledonous weed plants and crop plants were sown, in plastic or organic planting pots, in sandy loam, covered with soil and grown in a greenhouse under controlled growth conditions. 2 to 3 weeks after sowing, the test plants were sprayed in the single-leaf stage. The compounds according to the invention, formulated in form of wettable powders (WP) or as emulsifiable concentrates (EC), were sprayed onto the green plant parts as aqueous suspension or emulsion, with the addition of 0.5% of an additive, at an application rate of 600 l of water/ha (converted). The test plants were placed in the greenhouse for ca. 3 weeks under optimum growth conditions, and then the effect of the preparations was assessed visually in comparison with untreated controls (herbicidal effect in percent (%): 100% effect=plants have died off, 0% effect=as control plants).
(§4) Tables D1 to D13 below show the effects of selected compounds of the general formula (I) according to table 1 on various harmful plants and an application rate corresponding to 320 g/ha obtained by the experimental procedure mentioned above.

[11] = test system: Alopecurus myosuroides (ALOMY); assay: Herbicidal pre-emergence action (C), 320 g/ha; conditions: ca. 3 weeks
Method in brief: (§5)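 Seeds sown in sandy loam; WP or EC formulations sprayed on covering soil pre-emergence at 320 g/ha in 600 l water/ha with 0.5% additive. Greenhouse culture; damage scored visually after ca. 3 weeks versus untreated controls (0% = as control, 100% = plants dead).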

[12] = test system: Veronica persica (VERPE); assay: Herbicidal pre-emergence action (C), 320 g/ha; conditions: ca. 3 weeks
Method in brief: as §5

[13] = test system: Amaranthus retroflexus (AMARE); assay: Herbicidal pre-emergence action (C), 320 g/ha; conditions: ca. 3 weeks
Method in brief: as §5

[14] = test system: Setaria viridis (SETVI); assay: Herbicidal pre-emergence action (C), 320 g/ha; conditions: ca. 3 weeks
Method in brief: as §5

[15] = test system: Stellaria media (STEME); assay: Herbicidal pre-emergence action (A), 1280 g/ha; conditions: visual grading after ca. 3 weeks vs untreated controls
Method in brief: (§6)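 Greenhouse pre-emergence test: formulated compound (WP/EC plus 0.5% additive, 600 l/ha water) applied to the soil over sown seeds in sandy loam. Percent herbicidal effect was rated by eye after ca. 3 weeks relative to untreated pots.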

[16] = test system: Kochia scoparia (KCHSC; Bassia scoparia); assay: Herbicidal pre-emergence action (A), 1280 g/ha; conditions: visual grading after ca. 3 weeks vs untreated controls
Method in brief: as §6

[17] = test system: Lolium rigidum (LOLRI); assay: Herbicidal pre-emergence action (A), 1280 g/ha; conditions: visual grading after ca. 3 weeks vs untreated controls, 100% = plants have died off, 0% = as control plants
Method in brief: as §6

[18] = test system: Alopecurus myosuroides (ALOMY); assay: Herbicidal pre-emergence action (A), 1280 g/ha; conditions: visual grading after ca. 3 weeks vs untreated controls, 100% = plants have died off, 0% = as control plants
Method in brief: as §6

[19] = test system: Veronica persica (VERPE); assay: Herbicidal pre-emergence action (A), 1280 g/ha; conditions: visual grading after ca. 3 weeks vs untreated controls
Method in brief: as §6

[20] = test system: Amaranthus retroflexus (AMARE); assay: Herbicidal pre-emergence action (A), 1280 g/ha; conditions: visual grading after ca. 3 weeks vs untreated controls
Method in brief: as §6

[21] = test system: Digitaria sanguinalis (DIGSA); assay: Herbicidal pre-emergence action (A), 1280 g/ha; conditions: visual grading after ca. 3 weeks vs untreated controls, 100% = plants have died off, 0% = as control plants
Method in brief: as §6

[22] = test system: Poa annua (POAAN); assay: Herbicidal pre-emergence action (A), 1280 g/ha; conditions: visual grading after ca. 3 weeks vs untreated controls, 100% = plants have died off, 0% = as control plants
Method in brief: as §6

[23] = test system: Echinochloa crus-galli (ECHCG); assay: Herbicidal pre-emergence action (A), 1280 g/ha; conditions: visual grading after ca. 3 weeks vs untreated controls, 100% = plants have died off, 0% = as control plants
Method in brief: as §6

[24] = test system: Setaria viridis (SETVI); assay: Herbicidal pre-emergence action (A), 1280 g/ha; conditions: visual grading after ca. 3 weeks vs untreated controls
Method in brief: as §6

[25] = test system: Echinochloa crus-galli (ECHCG); assay: Herbicidal post-emergence action (B), 1280 g/ha; conditions: rated visually after about 3 weeks vs untreated controls
Method in brief: as §1

[26] = test system: Setaria viridis (SETVI); assay: Herbicidal post-emergence action (B), 1280 g/ha; conditions: rated visually after about 3 weeks vs untreated controls
Method in brief: as §1

[27] = test system: Digitaria sanguinalis (DIGSA); assay: Herbicidal pre-emergence action (C), 320 g/ha; conditions: ca. 3 weeks
From the text: Seeds of mono- and dicotyledonous weed plants and crop plants were sown, in plastic or organic planting pots, in sandy loam and covered with soil. The compounds according to the invention, formulated in the form of wettable powders (WP) or as emulsifiable concentrates (EC), were applied to the surface of the covering soil as aqueous suspension or emulsion, with the addition of 0.5% of an additive, at an application rate of 600 l of water/ha (converted).
Following treatment, the pots were placed in a greenhouse and kept under optimum growth conditions for the test plants. The visual grading of the damage to the test plants was carried out after ca. 3 weeks in comparison to untreated controls (herbicidal effect in percent (%): 100% effect=plants have died off, 0% effect=as control plants).
Tables C1 to C13 below show the effects of selected compounds of the general formula (I) according to table 1 on various harmful plants and an application rate corresponding to 320 g/ha obtained by the experimental procedure mentioned above.

[28] = test system: Alopecurus myosuroides (ALOMY); assay: Herbicidal post-emergence action (D), 320 g/ha; conditions: ca. 3 weeks
From the text: as §2, §3, §4

[29] = test system: Veronica persica (VERPE); assay: Herbicidal post-emergence action (D), 320 g/ha; conditions: ca. 3 weeks
From the text: as §2, §3, §4

[30] = test system: Lolium rigidum (LOLRI); assay: Herbicidal pre-emergence action (C), 320 g/ha; conditions: ca. 3 weeks
Method in brief: as §5

[31] = test system: Echinochloa crus-galli (ECHCG); assay: Herbicidal pre-emergence action (C), 320 g/ha; conditions: ca. 3 weeks
Method in brief: as §5

[32] = test system: Matricaria inodora (MATIN); assay: Herbicidal pre-emergence action (A), 1280 g/ha; conditions: visual grading after ca. 3 weeks vs untreated controls
Method in brief: as §6

[33] = test system: Abutilon theophrasti (ABUTH); assay: Herbicidal pre-emergence action (A), 1280 g/ha; conditions: visual grading after ca. 3 weeks vs untreated controls, 100% = plants have died off, 0% = as control plants
Method in brief: as §6

[34] = test system: Matricaria inodora (MATIN); assay: Herbicidal post-emergence action (B), 1280 g/ha; conditions: rated visually after about 3 weeks vs untreated controls
Method in brief: as §1

Row | SMILES | herbicidal effect STEME [1] [%] | herbicidal effect KCHSC [2] [%] | LOLRI, activity rated visually (%) [3] [%] | herbicidal activity ALOMY [4] [%] | herbicidal effect VERPE [5] [%] | herbicidal activity AMARE [6] [%] | herbicidal activity ABUTH [7] [%] | herbicidal activity POAAN [9] [%] | herbicidal effect AMARE [13] [%] | herbicidal effect SETVI [14] [%] | herbicidal effect STEME [15] [%] | herbicidal effect KCHSC [16] [%] | LOLRI, herbicidal effect in percent (%) [17] [%] | ALOMY, herbicidal effect in percent (%) [18] [%] | herbicidal effect VERPE [19] [%] | DIGSA, herbicidal effect in percent (%) [21] [%] | POAAN, herbicidal effect in percent (%) [22] [%] | ECHCG, herbicidal effect in percent (%) [23] [%] | herbicidal effect SETVI [24] [%] | herbicidal effect MATIN [32] [%] | also measured
1 | Fc1cccc(-c2nc3ncsc3cc2Cl)c1 [Example I-068] | 90 | 100 | 90 | 90 | 100 | 90 | 90 | 100 | 90 | 100 | 100 | 100 | 100 | 100 | 90 | 100 | 100 | 100 | 100 |  | herbicidal activity DIGSA [8]: 100%; herbicidal effect AMARE [10]: 90%; herbicidal effect ALOMY [11]: 100%; herbicidal effect VERPE [12]: 80%; herbicidal effect AMARE [20]: 90%
2 | Clc1ccccc1-c1nc2ncsc2cc1Cl [Example I-069] | 100 | 90 | 90 | 100 | 100 | 90 |  | 100 | 90 | 100 | 90 | 90 | 90 | 100 | 90 | 100 | 100 | 100 | 100 | 90 | herbicidal activity ECHCG [25]: 100%; herbicidal activity SETVI [26]: 90%; herbicidal effect DIGSA [27]: 100%; herbicidal effect ALOMY [28]: 90%; herbicidal effect VERPE [29]: 90%; herbicidal effect AMARE [10]: 80%; herbicidal effect LOLRI [30]: 100%; herbicidal effect ALOMY [11]: 100%; herbicidal effect VERPE [12]: 90%; herbicidal effect ECHCG [31]: 100%
3 | Cc1ccccc1-c1ccc2scnc2n1 [Example I-105] | 100 |  | 100 |  |  | 100 | 90 | 100 |  |  | 100 | 100 | 100 |  |  | 100 | 100 | 100 | 100 | 100 | herbicidal activity ECHCG [25]: 100%; herbicidal activity SETVI [26]: 90%; herbicidal effect ECHCG [31]: 90%; herbicidal effect AMARE [20]: 90%; ABUTH, herbicidal effect in percent (%) [33]: 90%
4 | Cc1ccsc1-c1nc2ncsc2cc1Br [Example I-132] | 100 | 90 | 100 | 100 | 100 | 90 | 90 | 90 | 90 | 100 | 90 | 100 | 100 | 100 | 100 | 100 | 100 | 100 | 100 | 90 | herbicidal activity MATIN [34]: 90%; herbicidal activity DIGSA [8]: 90%; herbicidal activity ECHCG [25]: 100%; herbicidal activity SETVI [26]: 90%; herbicidal effect LOLRI [30]: 100%; herbicidal effect ECHCG [31]: 100%; herbicidal effect AMARE [20]: 100%
5 | Cc1cscc1-c1ccc2scnc2n1 [Example I-134] |  |  | 90 |  |  | 90 |  | 90 |  |  | 100 |  | 100 | 90 |  |  | 90 |  | 100 | 90 | 
